According to ChEMBL document CHEMBL1134632, “Long lasting antinociceptive properties of enkephalin degrading enzyme (NEP and APN) inhibitor prodrugs” (J Med Chem, 2001):

Target: Neprilysin (Homo sapiens, UniProt P08473)
Assay: Compound was evaluated for inhibition of enkephalin degrading enzyme, neutral endopeptidase (NEP)

Neprilysin, sequence (P08473 whole entry): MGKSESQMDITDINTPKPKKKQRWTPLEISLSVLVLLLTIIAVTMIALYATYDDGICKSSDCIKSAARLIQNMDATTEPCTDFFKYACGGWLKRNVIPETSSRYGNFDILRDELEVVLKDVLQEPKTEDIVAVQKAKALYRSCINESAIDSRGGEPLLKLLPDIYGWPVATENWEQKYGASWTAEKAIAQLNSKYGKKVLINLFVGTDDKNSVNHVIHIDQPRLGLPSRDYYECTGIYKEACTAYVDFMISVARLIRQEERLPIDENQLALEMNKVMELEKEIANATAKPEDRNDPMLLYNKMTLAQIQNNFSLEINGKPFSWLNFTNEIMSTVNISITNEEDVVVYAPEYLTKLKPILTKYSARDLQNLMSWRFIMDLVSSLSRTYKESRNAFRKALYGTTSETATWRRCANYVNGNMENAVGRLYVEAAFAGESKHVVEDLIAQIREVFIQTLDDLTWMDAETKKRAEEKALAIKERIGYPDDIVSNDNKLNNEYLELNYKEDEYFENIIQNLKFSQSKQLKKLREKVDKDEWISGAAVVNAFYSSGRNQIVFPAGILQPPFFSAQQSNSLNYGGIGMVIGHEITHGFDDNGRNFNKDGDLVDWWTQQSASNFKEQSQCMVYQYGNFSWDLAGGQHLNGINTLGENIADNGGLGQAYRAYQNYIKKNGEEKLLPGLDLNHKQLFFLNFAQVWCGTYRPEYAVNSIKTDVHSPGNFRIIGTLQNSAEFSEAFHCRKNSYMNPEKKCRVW

`CSCC[C@H](N)CSSC[C@@H](Cc1ccccc1)C(=O)NC(Cc1ccccc1)C(=O)OCc1ccccc1` (stereo partly specified) showed a Ki of 2 nM.
